From patent US12029715B2, “Precursor compounds for providing retinoids of the vitamin A5 pathway and uses thereof” (UNIVERSITY OF DEBRECEN, priority 2015, dated 2024)
Entries after “also recorded” stand apart in the source; their conditions may differ. Blank lines part the entries; values can stand above or below the molecule they belong to.

How the values were obtained:
[1] = tested on: differentiating monocyte-derived human dendritic cells; experiment: DNA microarray in differentiating monocyte-derived dendritic cells; assay type: cell-based
Procedure: The generation and transcriptional analysis of differentiating DCs were performed as described previously [Szeles L et al. 2010]. Microarray data were deposited into the Gene Expression Omnibus database under accession no. GSE48573.
The generation and analysis of differentiating DCs were performed as described previously [Szeles L et al. 2010] with minor modifications. Briefly, human monocytes were isolated from healthy volunteer's buffy coat, obtained with a Regional Ethical Board permit from the Regional Blood Bank and isolated by Ficoll gradient centrifugation followed by immunomagnetic cell separation, and were cultured in the presence of GM-CSF and IL-4. Differentiating DCs were stimulated 18 h after […] by various agonists for 12 h. The ligands were used in the following concentrations: 10 μM (R)-9CDHRA, 10 μM (S)-9CDHRA, 1 μM 9cisRA, 100 nM LG100268, 1 μM GW3965, 1 μM Rosiglitazone (RSG), 1 μM GW1516, 100 nM AM580. Experiments were performed in biological triplicates. Samples were processed and hybridized to Human Genome U133 Plus 2.0 Arrays. Data were analysed using to GeneSpring 12.6.1 software. In detail, normalization was performed using RMA summarization algorithm. […] Microarray data were deposited into the Gene Expression Omnibus database under accession no. GSE48573.

[2] = Mouse oral supplementation, retinoid levels in serum, brain and liver (LC-MS); assay type: in vivo; conditions: mice, per os 40 mg/kg, 11 h after treatment
hRARα, β and γ LBDs = experiment: ESI-MS in non-denaturing conditions, binding to RAR LBD isotypes; design: species or system human; conditions: 5-fold molar excess of ligand
Procedure: (§1) cDNAs encoding hRXRα LBD (223-462), hRARα LBD (153-421), hRARBβ LBD (169-414) and hRARγ LBD (178-423) were cloned into pET28b vector to generate N-terminal Histag fusion proteins. Purification was carried out as previously described [Lippert W P et al. 2009, Osz J, et al. 2012], including a metal affinity chromatography and a gel filtration. For details of sample preparation and ESI-MS analyses see below.
cDNAs encoding hRXRαLBD (223-462), hRARαLBD (153-421), hRARβLBD (169-414) and hRARγ LBD (178-423) were cloned into pET28b vector to generate N-terminal His-tag fusion proteins. Purification was carried out as previously described [Lippert W P et al. 2009, Osz J, et al. 2012], including a metal affinity chromatography and a gel filtration. Prior to ESI-MS analysis, samples were desalted on Zeba Spin desalting columns (Pierce) in 150 mM ammonium acetate (pH 8.0). ESI-MS measurements were performed on an electrospray time-of-flight mass spectrometer (MicrOTOF, Bruker Daltonics). Purity and homogeneity of the proteins were verified by mass spectrometry in denaturing conditions (samples were diluted at 2 pmol/μl in a 1:1 water-acetonitrile mixture (v/v) acidified with 1% formic acid). The mass measurements of the noncovalent complexes were performed in ammonium acetate (200 mM; pH 8.0). […]

hRXRα LBD = target: T1, hRXRα LBD (Homo sapiens, UniProt P19793); experiment: ESI-MS in non-denaturing conditions, binding to RXR LBD; design: cDNAs encoding hRXRα LBD (223-462); His-tag (N); made in house; conditions: titration monitored by ESI-MS
T1 sequence (P19793 223-462): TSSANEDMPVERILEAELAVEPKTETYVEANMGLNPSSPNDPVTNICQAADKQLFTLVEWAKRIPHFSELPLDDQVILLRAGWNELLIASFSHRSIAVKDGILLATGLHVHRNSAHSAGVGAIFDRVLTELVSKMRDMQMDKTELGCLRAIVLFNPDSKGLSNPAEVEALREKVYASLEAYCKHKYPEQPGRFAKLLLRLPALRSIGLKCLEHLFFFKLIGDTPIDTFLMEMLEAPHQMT
Procedure: as §1
cDNAs encoding hRXRαLBD (223-462), hRARαLBD (153-421), hRARβLBD (169-414) and hRARγ LBD (178-423) were cloned into pET28b vector to generate N-terminal His-tag fusion proteins. Purification was carried out as previously described [Lippert W P et al. 2009, Osz J, et al. 2012], including a metal affinity chromatography and a gel filtration. Prior to ESI-MS analysis, samples were desalted on Zeba Spin desalting columns (Pierce) in 150 mM ammonium acetate (pH 8.0). ESI-MS measurements were performed on an electrospray time-of-flight mass spectrometer (MicrOTOF, Bruker Daltonics). Purity and homogeneity of the proteins were verified by mass spectrometry in denaturing conditions (samples were diluted at 2 pmol/μl in a 1:1 water-acetonitrile mixture (v/v) acidified with 1% formic acid). The mass measurements of the noncovalent complexes were performed in ammonium acetate (200 mM; pH 8.0). Samples were diluted to 8 pmol/ml in the previous buffer and continuously infused into the ESI ion source at a flow rate of […] through a Harvard syringe pump (Harvard Apparatus model 11). A careful optimization of the interface parameters was performed to obtain the best sensitivity and spectrum quality without affecting the noncovalent complexes stability. In particular, the capillary exit (CE) ranged from 60 to 150 V with a vacuum interface pressure of 2.3 mbar and was set to 80 V. For ligand-interaction analysis, ligands were added to the proteins in a 5-fold molar excess.

Rbp1−/− and Rxrγ−/− mice = experiment: Y-maze spontaneous alternation; assay type: in vivo, mouse; conditions: 5-6 hours prior to testing
Procedure: The Y-maze apparatus and the procedure were as previously described (Wietrzych et al., 2005). Briefly, each mouse was placed at the end of one arm and allowed to explore freely the apparatus for 5 min, with the experimenter out of the animal's sight. Spontaneous alternation performance (SAP) was assessed visually by scoring the pattern of entries into each arm and expressed as a percentage of total number of entries, discounting the first two visits. Total entries were scored as an index of ambulatory activity in the Y-maze, but none of tested mice had to be excluded due to low locomotor performance (score below 9 entries).
Vehicle treatments consisted of 3% ethanol and 3% DMSO solution in sunflower oil. Treatments were administered by intraperitoneal injections at volume/weight ratio 3 ml/kg between 8-10 am and 5-6 h before the test as previously validated (Wietrzych-Schindler M, 2011).

SMILES: CC(C=CC1=C(C)CCCC1(C)C)=CC=CC(C)CC(=O)O (stereo not drawn) [9CDHRA, 9-cis-13,14-dihydroretinoic acid]
expression of genes induced by AM580 (RAR-RXR target genes) [1]: also induced | transcripts regulated by LG268 (RXR-specific agonist) also regulated ([1]; 72 LG268 transcriptional targets): 68 out of 72

SMILES: CC1=C(/C=C/C(C)=C\C=C\C(C)CCO)C(C)(C)CCC1 (stereo not drawn) [9CDHROL, 9-cis-13,14-dihydroretinol]
9CDHRA levels in serum, brain and liver after treatment (conversion to 9CDHRA) [2]: strong increase; also recorded: strongly increased; also recorded: best conversion | 9CDHROL levels in serum, brain and liver after treatment [2]: strongly increased; also recorded: strong and significantly increased levels

binding to RAR LBD isotypes in ESI-MS (hRARα, β and γ LBDs): bind to all RAR LBD isotypes | higher affinity than (S)-9CDHRA for RXR LBD (peak amplitude) (hRXRα LBD): about 65% | lower affinity than 9CRA for RXR LBD (peak amplitude) (hRXRα LBD): approximately 30%
SMILES: CC1=C(/C=C/C(C)=C\C=C\[C@H](C)CC(=O)O)C(C)(C)CCC1 [(R)-9CDHRA, (9Z,13R)-13,14-Dihydroretinoic Acid]
overlap in transcriptional changes with 9CRA [1]: about 80% | share of all transcripts regulated by 9CRA that are similarly regulated by (R)-9CDHRA [1]: 85% | transcripts similarly regulated by both (R)-9CDHRA and 9CRA ([1]; 10 μM (R)-9CDHRA, 1 μM 9CRA): 384 | number of transcripts regulated ([1]; 10 μM (R)-9CDHRA, 1 μM 9CRA, 12 h, FC>2): 518 | expression of genes that are direct targets of RXR permissive heterodimers (LXR-RXR, PPAR-RXR) and RAR-RXR ([1]; 9CDHRA 10 μM, 9CRA 1 μM, LG268 100 nM, GW3965 1 μM, RSG 1 μM, GW1516 1 μM, AM580 100 nM): induced the expression of genes; also recorded: induce the expression of many genes

SMILES: CC1(C)CCC(C)(C)c2cc(C3(c4ccc(C(=O)O)cc4)OCCO3)ccc21 [UVI2108, reference compound]
working memory in spontaneous alternation in the Y-maze (Rbp1−/− and Rxrγ−/− mice; Rbp1−/− mice, ATRA 5 mg/kg, UVI2108 1 mg/kg, MA 5 mg/kg, DHA 1 mg/kg, TTNPB 5 mg/kg): normalised; also recorded: pro-mnemonic effects | working memory in spontaneous alternation in the Y-maze (Rbp1−/− and Rxrγ−/− mice; Rxrγ−/− mice, same doses): not
